Experimental data taken from patent US4792554A, “Pyridine compounds, pharaceutical compositions, their use in allergy therapy” (priority 1985, dated 1988).
Structures can show the parent of a compound that is named as a salt. Where two headings read alike, the source gives them in different places.

Columns and labels:
[1] = Anticholinergic action in the Konzett-Rössler model; type: in vivo, guinea pig
[2] = tested on: rat peritoneal mast cells; experiment: Histamine release from isolated rat mast cells induced by calcium ionophore A 23 187; type: cell-based; conditions: for IC50: Mast cell, 0.25 h, 15 min incubation, A 23 187 10^-6 g/ml, read-out: Inhibitory action in the Ca ionophore test IC50
Procedure: (b) Histamine release from isolated rat mast celss induced by calcium ionophore A 23 187 […] […] For this purpose, 10^4 cells were suspended in Clicks/RPMI (50:50, vol.; supplied by Serva, Heidelberg) tissue culture medium, incubated with the test substance for 15 minutes, and then treated with calcium ionophore A 23 187 at a concentration of 10^-6 g/ml. The released histamine was determined by high-pressure liquid chromatography (HPLC). The measure used for the inhibitory action was the IC50 which represents the molar concentration (mol/l) at which the induced histamine release was decreased to one half that of cells which had not been pretreated with a product. In this context, IC50 values above 10^-5 mol/l are regarded as therapeutically irrelevant.

mast cells [3] = experiment: Passive cutaneous anaphylaxis (PCA) in the rat, inhibition of mediator release (protective effect on mast cells); type: in vivo; conditions: for inhibition in vivo at 50 mg/kg: oral dose 50 mg/kg; for inhibition in vivo at 25 mg/kg: oral dose 25 mg/kg
Description: (a) Passive cutaneous anaphylaxis (PCA) in the rat (PCA test) Passive cutaneous anaphylaxis is an IgE-mediated allergy of the immediate type (type I). In this model, antibodies bound to mast cells and basophilic granulocytes react with an intravenously administered antigen with release of excessive amount of the allergy mediators. The histamine which is released during this can be visualized by simultaneous application of Evans blue to the shaven flanks of the rats. Photometric evaluation of the color intensity was used to determine, by means of the percentage inhibition of mediator release compared with untreated control animals, the protective effect on mast cells of the compound according to the invention after oral administration.

bradykinin = experiment: Antagonistic action towards bradykinin: inhibition of bradykinin-induced bronchospasm in anesthetized guinea pigs (Konzett-Rössler); type: in vivo, guinea pig; conditions: Cavia porcellus, iv, read-out: Inhibitory action towards bradykinin (ED50)
Procedure: (§1) 1. Antagonistic action towards the allergy mediators (on anesthetized guinea pigs)
(§2) The test substances were administered intravenously in aqueous solution injected in a volume of 1 ml/kg.

[4] = Acute toxicity, mortality within 7 days after single i.p. administration to NMRI mice; conditions: in vivo, ip, mouse i.p.
Procedure: The LD50 values were determined by the standard method of the mortality occurring within 7 days after a single intraperitoneal (i.p.) administration to NMRI mice (NMRI=Naval Medical Research Institute).

histamine = experiment: Antagonistic action towards histamine: inhibition of histamine-induced bronchospasm in anesthetized guinea pigs (Konzett-Rössler); type: in vivo, guinea pig; conditions: Cavia porcellus, iv, read-out: Inhibitory action towards histamine (ED50)
Procedure: as §1, §2

mast cells [5] = conditions: British Pat. No. 1,144,905; cited from earlier work
[6] = cited from earlier work
[7] = state of the art; cited from earlier work
[8] = tested on: platelet activating factor (PAF); experiment: Antagonism of PAF-induced bronchospasm in anesthetized rats; type: in vivo, rat; conditions: PAF test
Procedure: The compounds of the formula I and their salts additionally show a pronounced inhibitory action on platelet activating factor (PAF) and the leukotrienes, which are likewise released as spasmogenic mediators from the mast cells during the course of the immediate anaphylactic reaction. It was possible to antagonize the bronchospasm induced in anesthetized rats by administration of PAF by, for example, intravenous administration of the compound of Example 3 with a ED50 of 1-3 mg/kg. The said products of the state of the art, such as oxatomide, ketotiphen and terfenadine, have no action in this test. The contractions induced by calcium ionophore A 23 187 in isolated strips of lung and the isolated trachea of guinea pigs were inhibited by, for example, the compound of Example 3 with an IC50 of 0.1-0.3 μg/ml. Since calcium ionophore A 23 187 stimulates 5-lipoxygenase and thus promotes the formation of spasmogenic leukotrienes, a possible interpretation of the result of this experiment is that the compounds according to the invention are potent leukotriene inhibitors.

[9] = long-term therapy, state of the art; cited from earlier work
[10] = tested on: histamine and leukotrienes; conditions: state of the art; cited from earlier work
[11] = tested on: spontaneous motility of the mouse; experiment: Spontaneous motility of the mouse (central sedation); type: in vivo; conditions: oral, 1 mg/kg
[12] = tested on: airway obstruction induced by histamine aerosol; experiment: Plethysmographic investigation on conscious guinea pigs with airway obstruction induced by inhalation of histamine aerosol; type: in vivo, guinea pig; conditions: oral, 0.3% strength histamine aerosol
[13] = state of the art; cited from earlier work; remark: listed apart in the source
[14] = anesthetized guinea pigs, dose reducing induced spasm to one half

| SMILES | IC50 [2] [nM] | inhibition in vivo at 50 mg/kg (mast cells [3]; Mast cell) [%] | ED50 (bradykinin; [14]) [mg/kg] | LD50 at 168 h [4] [mg/kg] | ED50 (histamine; [14]) [mg/kg] | further results |
| --- | --- | --- | --- | --- | --- | --- |
| Cc1cc(NCCN2CCN(C(c3ccccc3)c3ccccc3)CC2)c(N)c(C)n1.Cl.Cl.Cl.O.O [Example 4, 3-amino-2,6-dimethyl-4-[(2-{4-diphenylmethyl-1-piperazinyl}ethyl)amino]pyridine trihydrochloride dihydrate] | 50 | 73 | – | – | – | anticholinergic action [1]: strong anticholinergic action |
| Cc1cc(NCCN2CCN(C(c3ccccc3)c3ccccc3)CC2)c(C#N)c(C)[n+]1[O-] [Example 10] | < 10 | 91 | 1 to 3 | 75 to 150 | 0.1 to 0.3 | – |
| Cc1cc(NCCN2CCN(C(c3ccccc3)c3ccc(Cl)cc3)CC2)c([N+](=O)[O-])c(C)n1 (stereo not drawn) [Example 14] | 1000 | 55 | 3 to 10 | 150 to 300 | 1 to 3 | – |
| Cc1cc(NCCN2CCN(C(c3ccc(F)cc3)c3ccc(F)cc3)CC2)c([N+](=O)[O-])c(C)n1 [Example 15] | 100 | 59 | 3 to 6 | 300 to 600 | 1 to 3 | – |
| Cc1cc(NCCN2CCN(C(c3ccccc3)c3ccccc3)CC2)c([N+](=O)[O-])c(C)[n+]1[O-].Cl.Cl.Cl.O.O [Example 1, 2,6-Dimethyl-3-nitro-4-[(2-{4-diphenylmethyl-1-piperazinyl}ethyl)amino]pyridine 1-oxide trihydrochloride dihydrate] | 100 | 91 | – | > 150 | – | ED50 (bradykinin): 1 to 3 mg/kg; ED50 (histamine): 0.3 to 1 mg/kg |
| Cc1cc(NCCN2CCN(C(c3ccccc3)c3ccccc3)CC2)c(C(=O)O)c(C)n1.Cl.Cl.Cl.O.O [Example 5, 2,6-dimethyl-4-[(2-{4-diphenylmethyl-1-piperazinyl}-ethyl)amino]pyridine-3-carboxylic acid trihydrochloride dihydrate] | 100 | 91 | – | 300 to 600 | – | ED50 (bradykinin): 3 mg/kg; anticholinergic action [1]: strong anticholinergic action; ED50 (histamine): 1 to 3 mg/kg |
| O=C(O)c1cc(=O)c2c(OCC(O)COc3cccc4oc(C(=O)O)cc(=O)c34)cccc2o1 [CHROMOGLICIC ACID] | – | – | – | – | – | stabilizing mast cells (mast cells [5]): stabilizing mast cells |
| CCCc1cc(NCCN2CCN(C(c3ccccc3)c3ccccc3)CC2)c([N+](=O)[O-])c(CCC)n1 [Example 12] | – | 61 | – | – | – | – |
| Cc1cc(NCCN2CCN(CC=Cc3ccccc3)CC2)c([N+](=O)[O-])c(C)n1 [Example 8] | 100 | 60 | 3 to 10 | 75 to 150 | 3 | – |
| O=[N+]([O-])c1cnccc1NCCN1CCN(C(c2ccccc2)c2ccccc2)CC1 [Example 21] | – | – | 0.03 | 150 to 300 | 0.02 | – |
| CC(C)(C)c1ccc(C(O)CCCN2CCC(C(O)(c3ccccc3)c3ccccc3)CC2)cc1 (stereo not drawn) [terfenadine] | – | – | – | – | – | sedation ([6]; in vivo): no sedative side effect; solubility in water [7]: insolubility in water; action on PAF / PAF-induced bronchospasm (in words) [8]: no action; weight gain [9]: undesired weight gain |
| Cc1cc(NCCN2CCN(C(c3ccncc3)c3ccc(Cl)cc3)CC2)c([N+](=O)[O-])c(C)n1 (stereo not drawn) [Example 16] | 100 | 75 | 1 | 300 to 600 | 1 | inhibition in vivo at 25 mg/kg (mast cells [3]; Mast cell): 46% |
| Cc1cc(NCCN2CCN(C(c3ccccc3)c3ccccc3)CC2)c(C#N)c(C)n1 [Example 9] | 10 | 64 | 3 to 10 | 300 to 600 | 0.3 to 1 | – |
| CN1CCC(=C2c3ccccc3CC(=O)c3sccc32)CC1 [ketotifen] | – | – | – | – | – | sedation ([6]; side effect, state of the art): pronounced sedation; action on PAF / PAF-induced bronchospasm (in words) [8]: no action; antagonistic properties for histamine and leukotrienes [10]: antagonistic properties for histamine and leukotrienes; reduction in the spontaneous motility [11]: significant |
| Cc1cc(N2CCSCC2)c([N+](=O)[O-])c(C)n1.Cl [4-(2,6-dimethyl-3-nitro-4-pyridyl)thiomorpholine hydrochloride, reference compound] | < 100000 | 13 | 3.16 | 150 to 300 | – | inhibition of histamine release in the Ca ionophore test (in words) [2]: inactive; inhibition in vivo at 12.5 mg/kg (mast cells [3]; Mast cell, oral dose 12.5 mg/kg): 0%; inhibition in vivo at 25 mg/kg (mast cells [3]; Mast cell): 0%; protective effect on mast cells in PCA test (in words) (mast cells [3]; oral administration): inactive |
| Cc1cc(NCCCN2CCN(C(c3ccccc3)c3ccccc3)CC2)c([N+](=O)[O-])c(C)n1 [Example 7] | 10 | 55 | 3 to 10 | 150 to 300 | 3 | – |
| O=c1[nH]c2ccccc2n1CCCN1CCN(C(c2ccccc2)c2ccccc2)CC1 [oxatomide] | – | – | – | – | – | ED50 ([12]; Cavia porcellus): 25 mg/kg; time after administration to maximum effect [12]: 90 min; sedation ([6]; side effect, state of the art): pronounced sedation; action on PAF / PAF-induced bronchospasm (in words) [8]: no action; antagonistic properties for histamine and leukotrienes [10]: antagonistic properties for histamine and leukotrienes; onset of action [13]: does not exert its action until several days have passed |
| Cc1cc(NCCN2CCN(Cc3ccccc3)CC2)c([N+](=O)[O-])c(C)n1 [Example 2, 4-[(2-(4-benzyl-1-piperazinyl)ethyl)amino]-2,6-dimethyl-3-nitropyridinetrihydrochloride] | 10000 | 67 | – | – | – | – |
| COc1ccc(CCN2CCC(Nc3nc4ccccc4n3Cc3ccc(F)cc3)CC2)cc1 [ASTEMIZOLE] | – | – | – | – | – | sedation ([6]; side effect, state of the art): no sedative side effect; solubility in water [7]: insolubility in water; weight gain [9]: undesired weight gain |
| Cc1cc(NCCN2CCC(C(O)(c3ccccc3)c3ccccc3)CC2)c([N+](=O)[O-])c(C)n1 [Example 17, 4-[(2-{4-hydroxy(diphenyl)methyl-1-piperidyl}ethyl)amino]-2,6-dimethyl-3-nitropyridine dihydrochloride] | < 10 | 91 | 3 to 10 | 75 to 150 | 0.3 | – |
| Cc1cc(NCCN2CCC(=C(c3ccccc3)c3ccccc3)CC2)c([N+](=O)[O-])c(C)n1.Cl.Cl.O.O [Example 6, 2,6-dimethyl-3-nitro-4-[(2-{4-diphenylmethylene-1-piperidyl}ethyl)amino]pyridine dihydrochloride dihydrate] | – | 91 | – | 600 to 1200 | – | ED50 (bradykinin): 3 to 6 mg/kg; ED50 (histamine): 1 to 3 mg/kg |
| Cc1cc(N(C)CCN2CCN(C(c3ccccc3)c3ccccc3)CC2)c([N+](=O)[O-])c(C)n1 [Example 13] | < 10 | 68 | 10 | 150 to 300 | 1 to 3 | – |
